Data on one compound can be found in patent publication US5462926A (Biomeasure, Inc., priority 1993, dated 1995).

Assay [1] addresses T1, somatostatin receptors (Rattus norvegicus, UniProt P30680).
T1 construct: endogenous in cells; host or cells: rat AR 42J pancreatic acinar tumor cell membranes
The assay can be described thus: Somatostatin membrane receptor assay, 125I-[Tyr11]SS-14, AR 42J cell membranes. The format is binding. Conditions: Cheng method; table prints no unit (b360 gives nM for a Table 4 value); read-out: affinity, 125I-[Tyr11]SS-14, AR 42J Cell Membranes (somatostatin receptors).

For assay [2], the target named is T2, GRP receptors on rat pancreatic acini (Rattus norvegicus, UniProt P52500).
T2 construct: from tissue; host or cells: dispersed pancreatic acini
The assay can be described thus: Binding of 125I-[Tyr4]bombesin to pancreatic acini. Conditions: read-out: Ki 125I-[Tyr4]Bn Binding, GRP Receptor, Rat Pancreatic Acini; Ki by Cheng method.
Description: Nonsaturable binding was<10% of total binding in all experiments.

For assay [3], the target named is T3, NMB receptor (Rattus norvegicus, UniProt P24053).
T3 sequence (P24053 1-390): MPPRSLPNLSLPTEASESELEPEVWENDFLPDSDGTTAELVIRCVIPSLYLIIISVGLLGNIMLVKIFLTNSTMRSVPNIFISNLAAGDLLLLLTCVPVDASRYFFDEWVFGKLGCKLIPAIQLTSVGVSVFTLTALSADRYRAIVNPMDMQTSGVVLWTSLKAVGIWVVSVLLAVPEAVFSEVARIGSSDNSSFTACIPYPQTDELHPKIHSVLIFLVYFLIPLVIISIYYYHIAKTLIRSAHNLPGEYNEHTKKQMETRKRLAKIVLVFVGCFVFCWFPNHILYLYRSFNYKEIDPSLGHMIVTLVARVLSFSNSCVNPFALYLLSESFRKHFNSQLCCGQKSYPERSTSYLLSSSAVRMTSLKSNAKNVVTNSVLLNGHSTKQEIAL
The assay can be described thus: [3H]inositol phosphates in NMB-R transfected cells (alone or NMB-stimulated). It is filed as cell-based. Details: a full length NMB-preferring bombesin receptor clone generated from rat esophagus; expressed in transfected cells. Conditions: NMB-R transfected cells. The method in brief:
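BALB 3T3 cells stably expressing rat NMB receptor, labelled 48 h at 37 °C with 100 μCi/ml myo-[3H]inositol, preincubated 15 min in buffer with 10 mM LiCl, then exposed 60 min at 37 °C to agonists or to 3 nM NMB plus antagonists. Total [3H]inositol phosphates isolated by anion-exchange chromatography.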

Assay [4] concerns the target T4, NMB receptors on C-6 cells (Rattus norvegicus, UniProt P24053).
T4 construct: endogenous in cells; host or cells: rat glioblastoma C-6 cells
T4 sequence (P24053 1-390): T3 sequence (P24053 1-390)
The assay can be described thus: Binding of 125I-[D-Tyr0]NMB to C-6 glioblastoma cells. To be noted: Ki by Cheng method, read-out: Ki 125I-NMB Binding, NMB Receptor, C-6 Cells. In a few lines:
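Disaggregated rat C-6 glioblastoma cells (15×10^6/ml) or NMB-R-transfected cells (2×10^6/ml) were incubated with 75 pM 125I-[D-Tyr0]NMB for 60 min at 22° C in HEPES binding buffer with 0.2% BSA, pH 7.4. Values are saturable binding: total minus binding in the presence of excess unlabelled NMB.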

The target of assay [5] is T5, rat NMB receptor (Rattus norvegicus, UniProt P24053).
T5 construct: a full length NMB-preferring bombesin receptor clone generated from rat esophagus; expressed in transfected cells
T5 sequence (P24053 1-390): T3 sequence (P24053 1-390)
The assay can be described thus: Binding of 125I-[D-Tyr0]NMB to NMB-R transfected BALB 3T3 cells.

Assay [6] has as its target T6, mu opioid receptors (Rattus norvegicus, UniProt P33535).
T6 construct: rat forebrain (TRH, mu and delta opioid membrane assays); from tissue; host or cells: rat forebrain membranes
The assay can be described thus: Mu opioid membrane assay, [3H]DAGO, rat forebrain membranes. It is filed as binding. Conditions: Cheng method; unit inferred; read-out: affinity, [3H]DAGO, Rat Forebrain membranes (mu opioid receptors).

SMILES strings stand for the structures. Like-named read-outs stand apart in the source and are kept apart here. Where a SMILES comes first, the peptide text is derived from it. Bridges are numbered along the chain shown (N, C = ends). [ ]: non-standard residue; d: D form. 2Nal = N[C@@H](Cc1ccc2ccccc2c1)C(=O)O; d2Nal = N[C@H](Cc1ccc2ccccc2c1)C(=O)O

T6 sequence (P33535 whole entry): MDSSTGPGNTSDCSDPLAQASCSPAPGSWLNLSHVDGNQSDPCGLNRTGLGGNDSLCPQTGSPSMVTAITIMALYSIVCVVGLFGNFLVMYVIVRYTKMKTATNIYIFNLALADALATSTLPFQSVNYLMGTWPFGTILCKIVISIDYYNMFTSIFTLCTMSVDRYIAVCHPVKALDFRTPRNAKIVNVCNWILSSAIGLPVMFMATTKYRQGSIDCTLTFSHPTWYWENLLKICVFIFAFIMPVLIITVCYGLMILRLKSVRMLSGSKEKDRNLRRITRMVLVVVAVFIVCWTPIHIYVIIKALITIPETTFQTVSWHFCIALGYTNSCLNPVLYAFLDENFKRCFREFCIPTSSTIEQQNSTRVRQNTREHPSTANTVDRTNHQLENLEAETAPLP
T1 sequence (P30680 whole entry): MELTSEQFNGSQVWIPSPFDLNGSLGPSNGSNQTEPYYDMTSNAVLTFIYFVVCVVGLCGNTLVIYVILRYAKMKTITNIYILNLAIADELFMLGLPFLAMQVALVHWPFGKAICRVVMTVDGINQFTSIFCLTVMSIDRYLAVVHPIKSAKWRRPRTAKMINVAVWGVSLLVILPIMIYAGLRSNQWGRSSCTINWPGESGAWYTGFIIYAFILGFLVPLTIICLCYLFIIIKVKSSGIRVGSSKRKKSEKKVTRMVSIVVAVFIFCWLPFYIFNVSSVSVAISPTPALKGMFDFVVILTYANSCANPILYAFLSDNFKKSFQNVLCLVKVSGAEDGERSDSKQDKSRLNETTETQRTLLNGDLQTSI
T2 sequence (P52500 whole entry): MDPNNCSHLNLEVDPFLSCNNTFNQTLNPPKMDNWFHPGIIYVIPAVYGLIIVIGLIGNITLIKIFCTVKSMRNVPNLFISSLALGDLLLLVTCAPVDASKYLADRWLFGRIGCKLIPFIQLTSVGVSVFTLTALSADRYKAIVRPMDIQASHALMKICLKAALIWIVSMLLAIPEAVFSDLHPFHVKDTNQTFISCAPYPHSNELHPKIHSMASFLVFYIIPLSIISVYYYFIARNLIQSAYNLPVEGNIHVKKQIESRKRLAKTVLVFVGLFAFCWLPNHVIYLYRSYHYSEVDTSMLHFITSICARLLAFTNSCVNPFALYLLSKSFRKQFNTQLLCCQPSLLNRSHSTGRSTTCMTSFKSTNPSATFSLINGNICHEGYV

With `CC(C)[C@@H]1NC(=O)[C@H](CCCCN)NC(=O)[C@@H](Cc2ccc3ccccc3c2)NC(=O)[C@H](Cc2ccc(O)cc2)NC(=O)[C@@H](NC(=O)[C@H](N)Cc2ccc3ccccc3c2)CSSC[C@@H](C(=O)N[C@@H](Cc2ccc3ccccc3c2)C(N)=O)NC1=O` [Analog #17, H2 -D-Nal-Cys-Tyr-D-Nal-Lys-Val-Cys-Nal-NH2] (H-[d2Nal]CY[d2Nal]KVC[2Nal]-NH2; disulfide 2-7), the Ki in assay [1] was 570 ± 180 nM; in assay [2], more than 10000 nM; in assay [4] it was 313 ± 33 nM; in assay [5] (NMB-R transfected BALB 3T3 cells, Ki by Cheng method, read-out: Ki 125I-NMB Binding, NMB Receptor, Transfected Cells) it was 399 ± 68 nM; in assay [6] it was 1570 nM. Further, the IC50 in assay [3] (3 nM NMB, read-out: IC50 NMB-stimulated [3H]IP, NMB Receptor, Transfected Cells) was 1.78 ± 0.295 µM; in assay [3] (3 nM NMB, read-out: IC50 NMB-stimulated [3H]IP, Transfected Cells (values in μM)) it was 1.2 to 1.8 µM. Further, the “effect at 10 μM on NMB-stimulated increase in [3H]IP” value in assay [3] (10 μM, 3 nM NMB) is given as “completely inhibited”. The “[3H]IP, analog Alone (10 μM)” value in assay [3] (analog 10 μM alone, control 13 ± 3) was 12 ± 4 dym × 10^3. Also, in assay [3] (analog 10 μM plus NMB 3 nM, NMB without analog 186 ± 58), the “[3H]IP, analog Plus NMB (3 nM)” value is on record as 15 ± 2 dym × 10^3. For the same compound, the “fold by which cyclo SS-octa is more potent than the analog, 125I-NMB binding” value in assay [5] (NMB-R transfected cells) is recorded as 2 fold.
